This note sets out measurements from patent US9073855B2, “BCL-2 selective apoptosis-inducing agents for the treatment of cancer and immune diseases” (AbbVie Inc., priority 2008, dated 2015).

For one test, the system named is Canine platelets. Description: Platelet cell viability assay (platelet-rich plasma, Cell Titer Glo). The conditions noted are these: Canis lupus familiaris, 5 h, isolated canine platelets ex vivo, five hours at 37° C. Type of test: cell-based. The procedure:
After the incubation, platelets were equilibrated to room temperature for 20 minutes and then an equal volume of Cell Titer Glo reagent (Promega Corporation) was added. Samples were mixed for two minutes and then allowed to equilibrate for an additional 10 minutes at room temperature. The luminescence generated from the samples was quantitated using an LJL Analyst plate reader.
The effect of compounds on platelet survival can be directly evaluated ex vivo by examining the viability of isolated canine platelets in the presence of various concentrations of compound.
A general note: Cellular ATP, detected with luciferase, serves as a proxy for viable cell number.

For a further test, the target named is GST-Bcl-XL (Homo sapiens, UniProt Q07817). Put plainly: TR-FRET binding assay, GST-Bcl-XL with F-Bak peptide probe. The settings on record: TR-FRET Binding Affinity, GST-Bcl-XL, F-Bak peptide probe. An outline of the steps:
(§1)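 Ki was derived with Wang's equation for competitive binding of two ligands. The read-out was time-resolved fluorescence after a 3 h room-temperature incubation, using a Tb-labelled antibody donor and the F-Bak peptide acceptor (excitation 340/35 nm). Test compounds entered as DMSO serial dilutions starting at 50 μM, which was the 2× concentration.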
(In TR-FRET formats the signal depends on donor and acceptor labels being close together.)

Another test deals with GST-Bcl-2 (Homo sapiens, UniProt P10415). Put plainly: TR-FRET binding assay, GST-Bcl-2 with F-Bak peptide probe. The conditions noted are these: for Ki: TR-FRET Binding Affinity, GST-Bcl-2, F-Bak peptide probe; for Binding selectivity ratio (Bcl-XL Ki/Bcl-2 Ki): ratio of TR-FRET Ki values, Bcl-XL over Bcl-2. In outline:
as §1

Another test relates to FL5.12/Bcl-2 cells. Description: FL5.12/Bcl-2 cell viability assay under IL-3 withdrawal (CellTitre Glo). Type of test: cell-based, murine. The conditions noted are these: Mus musculus, IL-3 withdrawn 48 hrs, then 24 hrs with compound. In outline: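 Viability measured with CellTiter-Glo after 24 h compound treatment at various concentrations, following 48 h IL-3 withdrawal (no WEHI-3B medium). Cells: prolymphocytic mouse FL5.12 line stably transfected to overexpress Bcl-2, cultured at 37 °C, 5% CO2.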

Structures are written as SMILES. Bounds are passed on as bounds.

Chain of GST-Bcl-2 (P10415 whole entry): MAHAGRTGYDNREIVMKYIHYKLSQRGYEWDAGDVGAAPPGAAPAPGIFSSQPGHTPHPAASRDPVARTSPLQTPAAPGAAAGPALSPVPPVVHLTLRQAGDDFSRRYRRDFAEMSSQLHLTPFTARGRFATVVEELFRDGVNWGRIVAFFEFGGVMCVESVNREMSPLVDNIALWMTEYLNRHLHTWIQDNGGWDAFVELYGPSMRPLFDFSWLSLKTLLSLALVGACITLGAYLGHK
Chain of GST-Bcl-XL (Q07817 whole entry): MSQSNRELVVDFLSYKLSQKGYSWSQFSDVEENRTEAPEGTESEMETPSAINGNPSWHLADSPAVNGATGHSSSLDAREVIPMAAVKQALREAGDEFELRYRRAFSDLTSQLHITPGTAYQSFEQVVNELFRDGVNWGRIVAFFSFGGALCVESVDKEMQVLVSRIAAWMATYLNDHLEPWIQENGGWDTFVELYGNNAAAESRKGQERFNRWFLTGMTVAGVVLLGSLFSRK

A word on the EC50: it is the concentration giving half of the maximal effect. By Ki is commonly meant a measure of affinity in units of concentration, obtained from inhibition or displacement. As to `CC1(C)CCC(CN2CCN(c3ccc(C(=O)NS(=O)(=O)c4ccc(NCCCN5CCOCC5)c([N+](=O)[O-])c4)c(Oc4ccccc4)c3)CC2)=C(c2ccc(Cl)cc2)C1` [Example 18, 4-(4-{[2-(4-chlorophenyl)-4,4-dimethylcyclohex-1-en-1-yl]methyl}piperazin-1-yl)-N-({4-[(3-morpholin-4-ylpropyl)amino]-3-nitrophenyl}sulfonyl)-2-phenoxybenzamide], the values for the EC50 in the test with Canine platelets and with FL5.12/Bcl-2 cells were 29700 nM and 123 nM, respectively. In addition, the values for the Ki on GST-Bcl-XL and on GST-Bcl-2 were 8.13 nM and 0.238 nM, respectively.

For `CN1CCC(Nc2ccc(S(=O)(=O)NC(=O)c3ccc(N4CCN(CC5=C(c6ccc(Cl)cc6)CC(C)(C)CC5)CC4)cc3Oc3ccc4[nH]ncc4c3)cc2[N+](=O)[O-])CC1` [Example 21, 4-(4-{[2-(4-chlorophenyl)-4,4-dimethylcyclohex-1-en-1-yl]methyl}piperazin-1-yl)-2-(1H-indazol-5-yloxy)-N-({4-[(1-methylpiperidin-4-yl)amino]-3-nitrophenyl}sulfonyl)benzamide], the concentration for a half-maximal effect (EC50) in the test on Canine platelets is over 50000 nM; with FL5.12/Bcl-2 cells, 1010 nM. For the same compound, the inhibitory constant (Ki) on GST-Bcl-XL was found to be 190 nM; at GST-Bcl-2 it was 5.43 nM.

With `CC1(C)CCC(CN2CCN(c3ccc(C(=O)NS(=O)(=O)c4ccc(NCCCN5CCOCC5)c([N+](=O)[O-])c4)c(Oc4ccc5c(c4)CCCN5)c3)CC2)=C(c2ccc(Cl)cc2)C1` [Example 22, 4-(4-{[2-(4-chlorophenyl)-4,4-dimethylcyclohex-1-en-1-yl]methyl}piperazin-1-yl)-N-({4-[(3-morpholin-4-ylpropyl)amino]-3-nitrophenyl}sulfonyl)-2-(1,2,3,4-tetrahydroquinolin-6-yloxy)benzamide], the half-maximal effective concentration (EC50) in the test on Canine platelets is over 50000 nM; in the test with FL5.12/Bcl-2 cells, 825 nM. For the same compound, the inhibition constant (Ki) was 125 nM at GST-Bcl-XL and 6.22 nM at GST-Bcl-2.

`CN1CCC(Nc2ccc(S(=O)(=O)NC(=O)c3ccc(N4CCN(CC5=C(c6ccc(Cl)cc6)CC(C)(C)CC5)CC4)cc3Oc3ccc4c(c3)CCCN4)cc2[N+](=O)[O-])CC1` [Example 23, 4-(4-{[2-(4-chlorophenyl)-4,4-dimethylcyclohex-1-en-1-yl]methyl}piperazin-1-yl)-N-({4-[(1-methylpiperidin-4-yl)amino]-3-nitrophenyl}sulfonyl)-2-(1,2,3,4-tetrahydroquinolin-6-yloxy)benzamide]: the 50% effective concentration (EC50) is over 50000 nM with Canine platelets and 1440 nM with FL5.12/Bcl-2 cells. In addition, the Ki at GST-Bcl-XL was 168 nM; at GST-Bcl-2 it was 6.64 nM.

As to `O=C(NS(=O)(=O)c1ccc(NCC2CCOCC2)c([N+](=O)[O-])c1)c1ccc(N2CCN(Cc3cc(CN4CCCC4)ccc3-c3ccc(Cl)cc3)CC2)cc1Oc1cccc2[nH]ccc12` [Example 24, 4-(4-{[4′-chloro-4-(pyrrolidin-1-ylmethyl)-1,1′-biphenyl-2-yl]methyl}piperazin-1-yl)-2-(1H-indol-4-yloxy)-N-({3-nitro-4-[(tetrahydro-2H-pyran-4-ylmethyl)amino]phenyl}sulfonyl)benzamide], the results for the concentration giving a half-maximal response (EC50) in the test on Canine platelets and with FL5.12/Bcl-2 cells were over 50000 nM and 55 nM, respectively. Moreover, the inhibition constant (Ki) at GST-Bcl-XL was over 660 nM; at GST-Bcl-2 it was 0.194 nM.

As to `O=C(NS(=O)(=O)c1ccc(NCC2CCOCC2)c([N+](=O)[O-])c1)c1ccc(N2CCN(Cc3cc(CCN4CCCC4)ccc3-c3ccc(Cl)cc3)CC2)cc1Oc1cccc2[nH]ccc12` [Example 25, 4-(4-{[4′-chloro-4-(2-pyrrolidin-1-ylethyl)-1,1′-biphenyl-2-yl]methyl}piperazin-1-yl)-2-(1H-indol-4-yloxy)-N-({3-nitro-4-[(tetrahydro-2H-pyran-4-ylmethyl)amino]phenyl}sulfonyl)benzamide], the concentration giving a half-maximal response (EC50) in the test on Canine platelets was over 50000 nM; in the test with FL5.12/Bcl-2 cells, 49 nM. Besides, the Ki at GST-Bcl-XL came out at 205 nM; at GST-Bcl-2, 0.05 nM.

As for `CC1(C)CCC(CN2CCN(c3ccc(C(=O)NS(=O)(=O)c4ccc(NC5CCN(C6CCCC6)CC5)c([N+](=O)[O-])c4)c(Oc4ccc5[nH]ccc5c4)c3)CC2)=C(c2ccc(Cl)cc2)C1` [Example 26, 4-(4-{[2-(4-chlorophenyl)-4,4-dimethylcyclohex-1-en-1-yl]methyl}piperazin-1-yl)-N-({4-[(1-cyclopentylpiperidin-4-yl)amino]-3-nitrophenyl}sulfonyl)-2-(1H-indol-5-yloxy)benzamide], the values for the EC50 in the test on Canine platelets and in the test on FL5.12/Bcl-2 cells were over 50000 nM and 35 nM, respectively. Besides, the Ki on GST-Bcl-XL is over 660 nM; on GST-Bcl-2 it was 0.14 nM.

Consider `CN1CCC(Nc2ccc(S(=O)(=O)NC(=O)c3ccc(N4CCN(CC5=C(c6ccc(Cl)cc6)CC(C)(C)CC5)CC4)cc3Oc3ccc4[nH]ccc4c3)cc2S(=O)(=O)C(F)(F)F)CC1` [Example 76, 4-(4-{[2-(4-chlorophenyl)-4,4-dimethylcyclohex-1-en-1-yl]methyl}piperazin-1-yl)-2-(1H-indol-5-yloxy)-N-({4-[(1-methylpiperidin-4-yl)amino]-3-[(trifluoromethyl)sulfonyl]phenyl}sulfonyl)benzamide], for which the EC50 came to 8660 nM in the test on Canine platelets and 39 nM in the test on FL5.12/Bcl-2 cells. The compound further displayed an inhibitory constant (Ki) on GST-Bcl-XL of 3.29 nM.

On to `CN1CCC(Nc2ccc(S(=O)(=O)NC(=O)c3ccc(N4CCN(CC5=C(c6ccc(Cl)cc6)CC(C)(C)CC5)CC4)cc3Oc3ccc4[nH]ccc4c3)cc2[N+](=O)[O-])CC1` [Example 98, 4-(4-{[2-(4-chlorophenyl)-4,4-dimethylcyclohex-1-en-1-yl]methyl}piperazin-1-yl)-2-(1H-indol-5-yloxy)-N-({4-[(1-methylpiperidin-4-yl)amino]-3-nitrophenyl}sulfonyl)benzamide], for which the EC50 with Canine platelets was 17900 nM; with FL5.12/Bcl-2 cells, 4 nM. On GST-Bcl-XL, this compound came in with an inhibition constant (Ki) of over 660 nM.

Take `CN(C)CCCOc1ccc(S(=O)(=O)NC(=O)c2ccc(N3CCN(CC4=C(c5ccc(Cl)cc5)CC(C)(C)CC4)CC3)cc2Oc2cccc3[nH]ccc23)cc1[N+](=O)[O-]` [Example 106, 4-(4-{[2-(4-chlorophenyl)-4,4-dimethylcyclohex-1-en-1-yl]methyl}piperazin-1-yl)-N-({4-[3-(dimethylamino)propoxy]-3-nitrophenyl}sulfonyl)-2-(1H-indol-4-yloxy)benzamide]: the EC50 in the test with Canine platelets amounted to 15200 nM; with FL5.12/Bcl-2 cells it was 9 nM.

In the case of `CN(C)CCOc1cccc(-c2ccc(Cl)cc2)c1CN1CCN(c2ccc(C(=O)NS(=O)(=O)c3ccc(NCC4CCOCC4)c([N+](=O)[O-])c3)c(Oc3ccc4[nH]ccc4c3)c2)CC1` [Example 129, 4-[4-({4′-chloro-3-[2-(dimethylamino)ethoxy]-1,1′-biphenyl-2-yl}methyl)piperazin-1-yl]-2-(1H-indol-5-yloxy)-N-({3-nitro-4-[(tetrahydro-2H-pyran-4-ylmethyl)amino]phenyl}sulfonyl)benzamide], the EC50 in the test with Canine platelets was over 50000 nM; in the test on FL5.12/Bcl-2 cells, 21 nM.

`CN1CCC(Nc2ccc(S(=O)(=O)NC(=O)c3ccc(N4CCN(CC5=C(c6ccc(Cl)cc6)CCC5)CC4)cc3Oc3cccc4[nH]ccc34)cc2[N+](=O)[O-])CC1` [Example 148, 4-(4-{[2-(4-chlorophenyl)cyclopent-1-en-1-yl]methyl}piperazin-1-yl)-2-(1H-indol-4-yloxy)-N-({4-[(1-methylpiperidin-4-yl)amino]-3-nitrophenyl}sulfonyl)benzamide]: in the test with Canine platelets, the EC50 stood at 19800 nM. Also, the results for the Ki on GST-Bcl-XL and at GST-Bcl-2 were over 660 nM and 2.89 nM, respectively.

Turning to `CC1(C)CCC(CN2CCN(c3ccc(C(=O)NS(=O)(=O)c4cnc(OCC5(F)CCOCC5)c(C(F)(F)F)c4)c(Oc4cccc5[nH]ncc45)c3)CC2)=C(c2ccc(Cl)cc2)C1` [Example 410, 4-(4-{[2-(4-chlorophenyl)-4,4-dimethylcyclohex-1-en-1-yl]methyl}piperazin-1-yl)-N-{[6-[(4-fluorotetrahydro-2H-pyran-4-yl)methoxy]-5-(trifluoromethyl)pyridin-3-yl]sulfonyl}-2-(1H-indazol-4-yloxy)benzamide], the Ki on GST-Bcl-XL is 102 nM; at GST-Bcl-2, 0.055 nM. Moreover, the concentration giving a half-maximal response (EC50) in the test on FL5.12/Bcl-2 cells was found to be 13.9 nM.

For `CC1(C)CCC(CN2CCN(c3ccc(C(=O)NS(=O)(=O)c4ccc(NCC5CN(C6CC6)CCO5)c([N+](=O)[O-])c4)c(Oc4cccc5[nH]ncc45)c3)CC2)=C(c2ccc(Cl)cc2)C1` (stereo not shown) [Example 411, 4-(4-{[2-(4-chlorophenyl)-4,4-dimethylcyclohex-1-en-1-yl]methyl}piperazin-1-yl)-N-[(4-{[(4-cyclopropylmorpholin-2-yl)methyl]amino}-3-nitrophenyl)sulfonyl]-2-(1H-indazol-4-yloxy)benzamide], the inhibition constant (Ki) at GST-Bcl-XL was determined as 7.45 nM; on GST-Bcl-2, 0.003 nM. The “Binding selectivity ratio (Bcl-XL Ki/Bcl-2 Ki)” value at GST-Bcl-2 is given as 2352.3. Also, the EC50 in the test with FL5.12/Bcl-2 cells was 11.4 nM.

With `CC1(C)CCC(CN2CCN(c3ccc(C(=O)NS(=O)(=O)c4ccc(NCC5CCC(F)(F)CC5)c([N+](=O)[O-])c4)c(Oc4cccc5[nH]ncc45)c3)CC2)=C(c2ccc(Cl)cc2)C1` [Example 412, 4-(4-{[2-(4-chlorophenyl)-4,4-dimethylcyclohex-1-en-1-yl]methyl}piperazin-1-yl)-N-[(4-{[(4,4-difluorocyclohexyl)methyl]amino}-3-nitrophenyl)sulfonyl]-2-(1H-indazol-4-yloxy)benzamide], the Ki at GST-Bcl-XL came out at 135 nM; on GST-Bcl-2 it was 0.021 nM. The “Binding selectivity ratio (Bcl-XL Ki/Bcl-2 Ki)” value at GST-Bcl-2 is 6545.5. Further, in the test on FL5.12/Bcl-2 cells, the EC50 turned out to be 9.48 nM.
